Data taken from patent publication US20250230171A1 (MOMA Therapeutics, Inc., priority 2023, published 2025).
Like-named read-outs stand apart in the source and are kept apart here.

Target: biotinylated Avi-POLθ[2-894] (Homo sapiens (Human), UniProt O75417)
Assay: POLθ ATPase assay (ADP-Glo)
Conditions: n=2, read-out: Biochemical ATPase ADPGlo IC50
Experimental: In some embodiments, the ATPase assay a compound of the present disclosure is combined with biotinylated Avi-POLθ[2-894], a 50 nucleotide poly-thymine repeat single-stranded DNA, and ATP in buffer. In some embodiments, the mixture is incubated and ADP-Glo Reagent added, followed by a subsequent incubation. In some embodiments, a Kinase Detection Reagent may be added, followed by a third incubation. In some embodiments, the activity is measured via luminescence signal (e.g., measured with the EnVision multimode plate reader). POLθ-mediated ATP hydrolysis was measured using the ADP-Glo Kinase Assay (Promega Corporation, Madison, WI). Reactions were performed in white 384-well small-volume microplates (Greiner Bio-One, Frickenhausen, Germany) using a total volume of 15 μL. The ATPase reaction consisted of 1 nM biotinylated Avi-POLθ[2-894], 5 nM of a 50 nucleotide poly-thymine repeat single-stranded DNA (PolyT(50) ssDNA), and 100 μM ATP in 5 μL of assay buffer (50 mM Tris, pH 7.5, 80 mM KCl, 10 MgCl2, 1 mM DTT, 5% glycerol, 0.01% BSA, 0.01% Tween-20). Inhibition of POLΘATPase activity was determined by preparing 11-point serial dilutions of the test compounds in 100% DMSO, then transferring 30 nL of the compounds into the ATPase reaction using an Echo acoustic liquid handler (Beckman Coulter, Brea, CA). DMSO-treated wells containing either all of the reaction components (1 nM biotinylated Avi-POLθ[2-894], 5 nM PolyT(50) ssDNA, 100 μM ATP) or with assay buffer substituted for the biotinylated Avi-POLθ[2-894](0 nM biotinylated Avi-POLθ[2-894], 5 nM PolyT(50) ssDNA, 100 μM ATP) were used to define the maximum and minimum response in the assay. Following a one-hour incubation at ambient temperature, 5 μL of ADP-Glo Reagent was added to the ATPase reaction, and this mixture was allowed to incubate at ambient temperature for an additional hour. Lastly, 5 μL of Kinase Detection Reagent was added, followed by a third one-hour incubation at ambient temperature. […] Luminescence signal was measured using the EnVision multimode plate reader (Perkin Elmer. Waltham. MA). […] Non-linear regression analysis using the four-parameter logistic equation was conducted on the percent activity values of the compound dose-responses, yielding the AC50 value for each compound. Genedata Screener (Genedata. Basel, Switzerland) was used for the data analysis.

biotinylated Avi-POLθ[2-894], sequence (O75417 2-894): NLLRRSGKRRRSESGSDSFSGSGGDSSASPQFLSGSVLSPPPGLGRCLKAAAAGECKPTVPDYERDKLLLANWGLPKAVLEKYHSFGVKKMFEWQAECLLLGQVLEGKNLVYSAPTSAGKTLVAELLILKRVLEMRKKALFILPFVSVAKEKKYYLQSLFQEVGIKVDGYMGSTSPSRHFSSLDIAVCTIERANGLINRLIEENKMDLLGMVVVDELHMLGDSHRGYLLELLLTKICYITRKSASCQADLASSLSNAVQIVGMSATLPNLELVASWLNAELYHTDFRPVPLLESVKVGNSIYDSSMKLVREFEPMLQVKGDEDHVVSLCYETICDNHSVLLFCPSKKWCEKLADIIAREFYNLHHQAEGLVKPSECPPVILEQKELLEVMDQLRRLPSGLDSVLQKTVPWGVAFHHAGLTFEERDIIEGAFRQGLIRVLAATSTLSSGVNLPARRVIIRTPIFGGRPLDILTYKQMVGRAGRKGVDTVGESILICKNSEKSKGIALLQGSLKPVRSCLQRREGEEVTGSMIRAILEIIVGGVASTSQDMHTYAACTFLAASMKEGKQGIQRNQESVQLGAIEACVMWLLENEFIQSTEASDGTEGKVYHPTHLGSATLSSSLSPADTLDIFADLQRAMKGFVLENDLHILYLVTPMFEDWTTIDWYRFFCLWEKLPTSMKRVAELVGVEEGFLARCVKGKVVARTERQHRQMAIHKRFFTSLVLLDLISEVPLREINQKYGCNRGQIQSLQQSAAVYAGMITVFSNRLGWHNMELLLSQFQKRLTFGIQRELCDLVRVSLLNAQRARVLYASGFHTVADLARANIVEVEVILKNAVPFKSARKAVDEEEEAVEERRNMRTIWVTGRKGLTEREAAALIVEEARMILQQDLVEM

Row | IC50 | IC50 (POLθ ATPase, ADP-Glo) | Structure (SMILES)
1 | 15 to 50 nM |  | COc1cnc(Cl)cc1-c1cc(C)ncc1C(=O)Nc1nc2c(s1)CN(C(=O)C1CN(CC(F)(F)F)C1)C2 [Example 120]
2 | 1 to 15 nM |  | COc1cnc(Cl)cc1-c1cc(C)ncc1C(=O)Nc1nc2c(s1)CN(C(=O)C1CCC(O)C1)C2 (stereo not drawn) [Example 180]
3 | 15 to 50 nM |  | COc1ccc(C#N)cc1-c1cc(C)ncc1C(=O)Nc1nc2c(s1)CN(C(=O)C1CC1OC)CC2 (stereo not drawn) [Example 207]
4 | 1 to 15 nM |  | COc1cnc(Cl)cc1-c1cc(C)ncc1C(=O)Nc1nc2c(s1)CN(C(=O)C1CC3(COC3)C1)C2 [Example 192]
5 | 1 to 15 nM |  | COc1cnc(Cl)cc1-c1cc(C)ncc1C(=O)Nc1nc2c(s1)CN(C(=O)c1cccc(OC(F)F)n1)C2 [Example 72, 2′-chloro-N-(5-(6-(difluoromethoxy)picolinoyl)-5,6-dihydro-4H-pyrrolo[3,4-d]thiazol-2-yl)-5′-methoxy-6-methyl-[4,4′-bipyridine]-3-carboxamide]
6 | 150 to 900 nM |  | COc1ccccc1-c1cc(C)ncc1C(=O)Nc1nc2c(s1)CN(C(=O)c1cccnn1)C2 [Example 342, 4-(2-methoxyphenyl)~6-methyl-N-[5-(1-methyl-6-oxo-1,6-dihydropyridine-3-carbonyl)-4H,5H,6H-pyrrolo[3,4-d][1,3]thiazol-2-yl]pyridine-3-carboxamide]
7 | 15 to 50 nM |  | COc1cnc(Cl)cc1-c1cc(C)ncc1C(=O)Nc1nc2c(s1)CN(C(=O)c1cc(O)n(C)n1)C2 [Example 92, 2′-chloro-N-(5-(5-hydroxy-1-methyl-1H-pyrazole-3-carbonyl)-5,6-dihydro-4H-pyrrolo[3,4-d]thiazol-2-yl)-5′-methoxy-6-methyl-[4,4′-bipyridine]-3-carboxamide]
8 |  | 1 to 15 nM | COc1cnc(Cl)cc1-c1cc(C)ncc1C(=O)Nc1nc2c(s1)CN(C(=O)[C@H]1CC[C@](O)(C(F)(F)F)C1)C2 [Example 736, 2′-chloro-N-(S-((1S,3R)-3-hydroxy-3-(trifluoromethyl)cyclopentane-1-carbonyl)-5,6-dihydro-4H-pyrrolo[3,4-d]thiazol-2-yl)-5′-methoxy-6-methyl-[4,4′-bipyridine]-3-carboxamide]
9 |  | 1 to 15 nM | COc1cnc(Cl)cc1-c1cc(C)ncc1C(=O)Nc1nc2c(s1)CN(C(=O)c1cccnc1OC(F)F)C2 [Example 525]
10 | 15 to 50 nM |  | COc1cnc(Cl)cc1-c1cc(C)ncc1C(=O)Nc1nc2c(s1)CN(C(=O)c1cnn(CC(F)(F)F)c1)C2 [Example 83, 2′-chloro-5′-methoxy-6-methyl-N-(5-(1-(2,2,2-trifluoroethyl)-1H-pyrazole-4-carbonyl)-5,6-dihydro-4H-pyrrolo[3,4-d]thiazol-2-yl)-[4,4′-bipyridine]-3-carboxamide]
11 | 150 to 900 nM |  | COc1ccccc1-c1cc(C)ncc1C(=O)Nc1nc2c(s1)CN(C(=O)C1CCCCO1)C2 (stereo not drawn) [Example 324, 4-(2-methoxyphenyl)~6-methyl-N-(5-{3-oxabicyclo[3.1.0]hexane-6-carbonyl}-4H,5H,6H-pyrrolo[3,4-d][1,3]thiazol-2-yl)pyridine-3-carboxamide]
12 | 15 to 50 nM |  | COc1ccc(C#N)cc1-c1cc(C)ncc1C(=O)Nc1nc2c(s1)CN(C(=O)C1CC1C)CC2 (stereo not drawn) [Example 211]
13 | 1 to 15 nM |  | COc1cnc(Cl)cc1-c1cc(C)ncc1C(=O)Nc1nc2c(s1)CN(C(=O)c1ncon1)C2 [Example 60, N-(5-(1,2,4-oxadiazole-3-carbonyl)-5,6-dihydro-4H-pyrrolo[3,4-d]thiazol-2-yl)-2′-chloro-5′-methoxy-6-methyl-[4,4′-bipyridine]-3-carboxamide]
14 | 1 to 15 nM |  | COc1cnc(Cl)cc1-c1cc(C)ncc1C(=O)Nc1nc2c(s1)CN(C(=O)c1ncco1)C2 [Example 182]
15 | 15 to 50 nM |  | COc1ccccc1-c1cc(C)ncc1C(=O)Nc1nc2c(s1)CN(C(=O)c1cccc3ccnn13)C2 [Example 253]
16 |  | ≥ 900 nM | COc1nc(C(F)(F)F)ccc1C(=O)N1Cc2nc(NC(=O)c3cnc(C)cc3-c3cc(Cl)c[nH]c3=O)sc2C1 [Example 1045, 5-chloro-N-(5-(2-methoxy-6-(trifluoromethyl)nicotinoyl)-5,6-dihydro-4H-pyrrolo[3,4-d]thiazol-2-yl)-6′-methyl-2-oxo-1,2-dihydro-[3,4′-bipyridine]-3′-carboxamide]
17 | 50 to 150 nM |  | COc1ccc(C#N)cc1-c1cc(C)ncc1C(=O)Nc1nc2c(s1)CN(C1CC1)C2 (racemic) [Example 165]
18 | 1 to 15 nM |  | COc1cnc(Cl)cc1-c1cc(C)ncc1C(=O)Nc1nc2c(s1)CN(C(=O)c1ccnn1CC(F)F)C2 [Example 143, 2′-chloro-N-(5-(1-(2,2-difluoroethyl)-1H-pyrazole-5-carbonyl)-5,6-dihydro-4H-pyrrolo[3,4-d]thiazol-2-yl)-5′-methoxy-6-methyl-[4,4′-bipyridine]-3-carboxamide]
19 | 1 to 15 nM |  | COc1cnc(Cl)cc1-c1cc(C)ncc1C(=O)Nc1nc2c(s1)CN(C(=O)N1CC[C@@H](O)C1)C2 [Example 129]
20 | 1 to 15 nM |  | COc1cnc(Cl)cc1-c1cc(C)ncc1C(=O)Nc1nc2c(s1)CN(C(=O)C1CCC(OC)C1)C2 (racemic) [Example 101, (Racemic)-2′-chloro-5′-methoxy-N-(5-(3-methoxycyclopentane-1-carbonyl)-5,6-dihydro-4H-pyrrolo[3,4-d]thiazol-2-yl)-6-methyl-[4,4′-bipyridine]-3-carboxamide]

Further lines, the molecule ahead of its results:

Row | Structure (SMILES) | IC50 | IC50 (POLθ ATPase, ADP-Glo)
21 | COc1ccccc1-c1cc(C)ncc1C(=O)Nc1nc2c(s1)CN(C(=O)C1CCC(=O)N1)C2 (stereo not drawn) | 150 to 900 nM | 
22 | COc1cnc(Cl)cc1-c1cc(C)ncc1C(=O)Nc1nc2c(s1)CN(C(=O)C1CCCC(OC(F)F)C1)C2 (stereo not drawn) |  | 150 to 900 nM
23 | COc1ccccc1-c1cc(C)ncc1C(=O)Nc1nc2c(s1)CC(Nc1ccccc1)CC2 (stereo not drawn) [listing 1 of 2 here] | ≥ 900 nM | 
24 | COc1cnc(Cl)cc1-c1cc(C)ncc1C(=O)Nc1nc2c(s1)CN(C(=O)c1cnc(OC(F)F)cn1)C2 |  | 1 to 15 nM
25 | COc1cc(Cl)c(C(=O)N2Cc3nc(NC(=O)c4cnc(C)cc4-c4cc(Cl)ncc4OC)sc3C2)nn1 |  | 1 to 15 nM
26 | COc1ccccc1-c1cc(C)ncc1C(=O)Nc1nc2c(s1)CN(C(=O)c1cc(OC)n(C)n1)C2 | 150 to 900 nM | 
27 | COc1ccccc1-c1cc(C)ncc1C(=O)Nc1nc2c(s1)CN(c1ccccn1)C2 (racemic) | ≥ 900 nM | 
28 | COc1ccc(C#N)cc1-c1cc(C)ncc1C(=O)Nc1nc2c(s1)CN(S(=O)(=O)C1CCC1)C2 | 50 to 150 nM | 
29 | COc1cnc(Cl)cc1-c1cc(C)ncc1C(=O)Nc1nc2c(s1)C[C@H](C(=O)N1CC(O)C1)CC2 |  | 50 to 150 nM
30 | COc1ccccc1-c1cc(C)ncc1C(=O)Nc1nc2c(s1)CN(C(=O)N(C)C)C2 | ≥ 900 nM | 
31 | COc1cnc(Cl)cc1-c1cc(C)ncc1C(=O)Nc1nc2c(s1)CN(C(=O)c1cccnn1)C2 [Example 33, 2′-chloro-5′-methoxy-6-methyl-N-(5-(pyridazine-3-carbonyl)-5,6-dihydro-4H-pyrrolo[3,4-d]thiazol-2-yl)-[4,4′-bipyridine]-3-carboxamide] | 1 to 15 nM | 
32 | COc1ccccc1-c1cc(C)ncc1C(=O)Nc1nc2c(s1)CN(C(=O)C1CC(=O)N1)C2 (racemic) | 150 to 900 nM | 
33 | COc1ccccc1-c1cc(C)ncc1C(=O)Nc1nc2c(s1)C(=O)N(C1CC1)C2 | ≥ 900 nM | 
34 | COc1ccccc1-c1cc(C)ncc1C(=O)Nc1nc2c(s1)CC(Nc1ccccc1)CC2 (stereo not drawn) [listing 2 of 2 here] | 50 to 150 nM | 
35 | COc1ccccc1-c1cc(C)ncc1C(=O)Nc1nc2c(s1)CC(c1ccc(Cl)cc1)CC2 (racemic) | 150 to 900 nM | 
36 | COc1ccccc1-c1cc(C)ncc1C(=O)Nc1nc2c(s1)COCC2 | ≥ 900 nM | 
37 | COc1ccccc1-c1cc(C)ncc1C(=O)Nc1nc2c(s1)CN(C(=O)c1ccn(C)c(=O)c1)C2 | 150 to 900 nM | 
38 | COc1cnc(Cl)cc1-c1cc(C)ncc1C(=O)Nc1nc2c(s1)CN(C(=O)c1ncc(C)n1C)C2 |  | 1 to 15 nM
39 | COc1cnc(Cl)cc1-c1cc(C)ncc1C(=O)Nc1nc2c(s1)CN(C(=O)c1ccnn1CC(F)(F)F)C2 [Example 46, 2′-chloro-5′-methoxy-6-methyl-N-(5-(1-(2,2,2-trifluoroethyl)-1H-pyrazole-5-carbonyl)-5,6-dihydro-4H-pyrrolo[3,4-d]thiazol-2-yl)-[4,4′-bipyridine]-3-carboxamide] | 1 to 15 nM | 
40 | COc1ccccc1-c1cc(C)ncc1C(=O)Nc1nc2c(s1)CN(C(=O)c1cccnc1)C2 | 50 to 150 nM | 
41 | COc1cnc(Cl)cc1-c1cc(C)ncc1C(=O)Nc1nc2c(s1)CN(C(=O)c1nc(C(F)(F)F)co1)C2 |  | 1 to 15 nM
42 | COc1ccccc1-c1cc(C)ncc1C(=O)Nc1nc2c(s1)CN(C(=O)C13CC(C#N)(C1)C3)C2 | 150 to 900 nM | 
